Measurements taken from patent publication US20210293825A1, “METHODS FOR PRECISION THERAPEUTIC TARGETING OF HUMAN CANCER CELL MOTILITY AND KITS THEREOF” (UNITED STATES GOVERNMENT AS REPRESENTED BY THE DEPARTMENT …, priority 2018, published 2021).

Experiments:
[1] = target: T1, MKK4 (Homo sapiens, UniProt P45985, S257E/T261E); experiment: Fluorescence-based thermal shift assay, MKK4; type: binding; parameters: made in house
T1 sequence (P45985 37-399 S257E/T261E): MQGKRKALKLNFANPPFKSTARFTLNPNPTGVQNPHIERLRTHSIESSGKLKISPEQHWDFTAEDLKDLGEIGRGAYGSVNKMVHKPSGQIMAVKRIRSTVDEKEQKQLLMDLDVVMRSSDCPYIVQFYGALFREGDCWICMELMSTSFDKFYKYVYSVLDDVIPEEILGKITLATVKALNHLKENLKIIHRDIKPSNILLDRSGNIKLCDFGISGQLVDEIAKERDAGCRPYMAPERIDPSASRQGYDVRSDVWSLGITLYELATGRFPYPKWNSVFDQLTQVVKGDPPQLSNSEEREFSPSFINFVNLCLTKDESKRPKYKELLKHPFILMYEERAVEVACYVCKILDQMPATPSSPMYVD
Protocol: (§1) FIG. 16a is a depiction of established MKK4 pathway regulating human PCa cell metastasis. […] Values are the mean±SD (of N=2 replicates) increase in melting temperature (ΔTm) of purified recombinant MKK4 induced by the indicated concentrations of KBU2046 or genistein. […] The indicated concentrations of KBU2046 were added to recombinant activated MKK4, and its ability to phosphorylate kinase dead p38a MAPK (K53A) was measured by Western blot for total (p38 MAPK) and phosphorylated (pp38 MAPK) forms of p38 MAPK. […] PC3-M cells were pre-treated for 24 hours with 50 μM KBU2046 or genistein, as indicated, then with TGFβ, and Western blot performed. These findings are from a single experiment, with similar findings in identical separate experiments, repeated at least once.
Biophysical and Biochemical Binding Assays. Fluorescent thermal shift (Krishna, S. N. et al., PLoS One 8, e81504 (2013)), isothermal titration calorimetry (Chavez, J. D. et al., Mol Cell Proteomics 12, 1451-67 (2013)), and biolayer interferometry assays (Makowska-Grzyska, M. et al., Biochemistry 51, 6148-63 (2012)), were performed using MEK4EE (37-399, S257E, T261E) cloned into pMCSG7 and KRX Competent E. coli cells (Promega Inc.) and full-length HSP90B and CDC37 vectors and Rosetta BL-21 and BL-21 DE-3 competent E. coli cells, respectively. […]

[2] = system: phosphorylated Ser226 on HSP90β; experiment: PhosphoScan LC-MS/MS proteomic analysis in PC3 cells; type: cell-based, human; settings: 10 μM 3 days, then TGFβ
Protocol: The 83 kDa protein was identified by pretreating PC3 cells with KBU2046 or vehicle control, treating with TGFβ and performing LC-MS/MS analysis on proteins pulled down by the KinomeView® antibody used in FIG. 4a. Resultant data were analyzed with the SEQUEST/Sorcerer data analysis suite, and proteins further selected based upon predetermined parameters (FIG. 19).
Phospho-proteomic Analysis. The Kinoview™ and PhosphoScan™ assays were performed by Cell Signaling Technology Inc.
Proteins bound in this manner were analyzed in replicates of N=2 using PhosphoScan™ technology. This identified 483 phosphopeptide assignments from 306 parent proteins, with a mean false discovery rate of 0.30% (estimated via Sorcerer search of composite human database of forward and reverse protein entries). Proteins were considered if the average values for treatment and control were each 3 times that of background. Further, it was required that each of the N=2 replicate values (used to calculate the average) to be >/=2.5 fold above background. Interest was focused on which protein decreased with KBU2046, and it was required that the decrease be >/=2.5 fold, compared to control. According to these parameters, there were 19 phospho-proteins whose expression decreased in cells treated with KBU2046, compared to control. These are depicted herein. […]

[3] = system: 20 phosphatases; experiment: PhosphataseProfiler assay platform (Millipore); type: biochemical; settings: competition with substrate protein
Excerpt: Kinase assay system #3. KinaseProfiler™ and PhosphataseProfiler™ assay platforms (Millipore). This platform is radiometric-based (considered gold standard). It measures competition with respect to ATP for kinases and substrate protein for phosphatases. Most proteins were expressed via an insect-based system, and it evaluates a panel of 284 kinases and 20 phosphatases. […] Important negative findings include: MKK4, MKK6, p38 MAPK, MAPKAPK2, RAF1, ERK, MEK1, JNK1, 2 and 3, and numerous other MAPK cascade-associated kinases.

[4] = system: phosphorylation of p38 MAPK or of HSP27; experiment: Downstream phosphorylation of p38 MAPK and HSP27 in cells (Western blot); type: cell-based, human; settings: PC3-M cells, 50 μM, 24 hours, then TGFβ
Protocol: as §1

O=C1c2ccccc2OCC1c1ccc(F)cc1 (racemic) [KBU2046, (±)-3(4-fluorophenyl)chroman-4-one]
binding to MKK4 [1]: did not bind to MKK4 | decrease of abundance of phosphorylated Ser226 on HSP90β [2]: 6.6 fold | inhibition of phosphatase activity [3]: No evidence supports inhibition of phosphatase activity | inhibition of downstream phosphorylation of p38 MAPK or HSP27 [4]: did not inhibit downstream phosphorylation of p38 MAPK or of HSP27
